Measured values taken from patent publication US5656289A, “Pharmaceutical formulations that have a biologically active hydrophilic phase and a chylomicra-containing hydrophobic phase” (priority 1988, dated 1997).
“And” between values parts separate entries of the source, which are not always exact repeats. Equal entries are not always repeated.

What was measured:
diabetics [1] = assay: Biological Example B: blood sugar in diabetics and one healthy volunteer after oral Example 1 liquid microemulsion, Regular Insulin or Diabenase; settings: for response of case numbers 1 and 8 (in words): 500 mg tablets per os / 20 units s.c.
Procedure: An appropriate amount of the microemulsion is given in a liquid form per os together with 10 ml of MCT (MCT is a trade mark for a medium chained triglyceride solution by Mead-Johnson & Co. Evansville, Ind., U.S.A.). […] Each ml of the insulin-containing formulation contains approximately 5 units of bovine insulin.
Twelve diabetics (9 IDDM and 3 NIDDM) and one healthy volunteer participate in the study. […] Each subject is given one unit of insulin per kg body weight in the form described above per os.

[2] = Biological Example A: serum insulin after oral Example 5 capsules or s.c. Regular Insulin (radioimmunoassay); type: in vivo, human
Procedure: A total of 17 diabetics (8 Insulin-Dependent and 9 Non-Insulin-Dependent diabetics) and one healthy volunteer are fasted overnight. […] Each capsule contains approximately 10 U of bovine insulin and each subject is given, orally, a dose equivalent to approximately one unit per kg body weight, with about 250 ml of water. Blood sugar levels are measured on blood samples obtained by pricking the finger-tip using a HAEMOGLUKOTEST set 20-800R and a REFLOLUX apparatus (Boehringer Mannheim GmbH, West Germany). In a few cases, serum insulin levels are measured using a radioimmunoassay method. For the serum insulin analyses, the serum samples are decanted into TRASYLOL-containing test tubes and stored at -20° to -35° C. until analysed. (TRASYLOL is a trade mark of Bayer for aprotinin proteinase inhibitor.)

[3] = Biological Example B: serum insulin after oral Example 1 emulsion or s.c. Regular Insulin; type: in vivo, human
Excerpt: The results are as follows:

diabetics [4] = assay: Biological Example A: blood sugar in diabetics and one healthy volunteer after oral Example 5 capsules or s.c. Regular Insulin; type: in vivo, human
[5] = in vivo; cited from earlier work
[6] = 15 Units s.c., case 18 IDDM, 0 h (baseline)
[7] = 15 Units s.c., case 18 IDDM, 1.0 h
[8] = 15 Units s.c., case 18 IDDM, 2.0 h
[9] = 15 Units s.c., case 12 IDDM, 0 h (baseline)
[10] = 15 Units s.c., case 12 IDDM, 1 h
[11] = 15 Units s.c., case 12 IDDM, 3 h
[12] = 15 Units s.c., case 12 IDDM, 4 h
[13] = 20 Units s.c., case 11 IDDM, 0.5 h
[14] = 20 Units s.c., case 11 IDDM, 3 h
[15] = 20 Units s.c., case 11 IDDM, 4 h

CCCNC(=O)NS(=O)(=O)c1ccc(Cl)cc1 [Diabenase]
Blood Sugar (diabetics [1]; 500 mg per os, case 1 NIDDM, 0 h (baseline)): 186 mg/dL | Blood Sugar (diabetics [1]; 500 mg per os, case 8 NIDDM, 1 h): 222 mg/dL | Blood Sugar (diabetics [1]; 500 mg per os, case 8 NIDDM, 2 h): 205 mg/dL | Blood Sugar (diabetics [1]; 500 mg per os, cases 1 and 8 NIDDM, 3 h): 164 mg/dL and 174 mg/dL | response of case numbers 1 and 8 (in words) (diabetics [1]): poor responders

Regular Insulin: Regular Insulin (Green Cross Co. of Seoul, Korea), subcutaneously injected
Serum Insulin [2, 6]: 10 micro-U/ml | Serum Insulin [2, 7]: 57 micro-U/ml | Serum Insulin [2, 8]: 184 micro-U/ml | Serum Insulin ([2]; 15 Units s.c., case 18 IDDM, 4.0 h): 64 micro-U/ml | Serum Insulin ([2]; 20 Units s.c., case 10 NIDDM, 1.0 h): 19 micro-U/ml | Serum Insulin ([2]; 20 Units s.c., case 10 NIDDM, 2.0 h): 11 micro-U/ml | Serum Insulin [3, 9]: 30 micro-Units/ml | Serum Insulin [3, 10]: 47 micro-Units/ml | Serum Insulin [3, 11]: 112 micro-Units/ml | Serum Insulin [3, 12]: 115 micro-Units/ml | Serum Insulin [3, 13]: 159 micro-Units/ml | Serum Insulin [3, 14]: 78 micro-Units/ml | Serum Insulin [3, 15]: 45 micro-Units/ml | response of case numbers 1 and 8 (in words) (diabetics [1]): poor responders | Blood Sugar (Table 6) (diabetics [1]; [9]): 188 mg/dL | Blood Sugar (Table 6) (diabetics [1]; [10]): 181 mg/dL | Blood Sugar (Table 6) (diabetics [1]; [11]): 160 mg/dL | Blood Sugar (Table 6) (diabetics [1]; [12]): 139 mg/dL | Blood Sugar (diabetics [1]; 15 Units, case 1 NIDDM, 0 h (baseline)): 201 mg/dL | Blood Sugar (diabetics [1]; 15 Units, case 1 NIDDM, 1 h): 198 mg/dL | Blood Sugar (diabetics [1]; 15 Units, case 1 NIDDM, 4 h): 185 mg/dL | Blood Sugar (Table 6) (diabetics [1]; 20 Units s.c., case 11 IDDM, 0 h (baseline)): 308 mg/dL | Blood Sugar (Table 6) (diabetics [1]; [13]): 181 mg/dL | Blood Sugar (Table 6) (diabetics [1]; [14]): 87 mg/dL | Blood Sugar (Table 6) (diabetics [1]; [15]): 115 mg/dL | Blood Sugar (diabetics [1]; 20 Units, case 8 NIDDM, 3 h): 194 mg/dL | Blood Sugar (diabetics [1]; 20 Units, case 8 NIDDM, 4 h): 176 mg/dL | Blood Sugar (diabetics [1]; 20 Units, cases 6 and 8, 0 h (baseline)): 151 mg/dL and 218 mg/dL | Blood Sugar (diabetics [1]; 20 Units, cases 6 and 8, 2 h): 124 mg/dL and 200 mg/dL | response to subcutaneously injected insulin (in words) (diabetics [4]; 5 to 20 units s.c., case nos. 2, 5, 6, 10, 14): respond poorly | Blood Sugar (diabetics [4]; 5 units s.c., case 6 NIDDM, 0 h (baseline)): 259 mg/dL | Blood Sugar (diabetics [4]; 5 units s.c., case 6 NIDDM, 2 h): 376 mg/dL | Blood Sugar (diabetics [4]; 5 units s.c., case 6 NIDDM, 3 h): 298 mg/dL | Blood Sugar (Table 3) (diabetics [4]; [6]): 171 mg/dL | Blood Sugar (Table 3) (diabetics [4]; [7]): 152 mg/dL | Blood Sugar (Table 3) (diabetics [4]; [8]): 122 mg/dL | Blood Sugar (Table 3) (diabetics [4]; 15 Units s.c., case 18 IDDM, 3.0 h): 207 mg/dL | Blood Sugar (Table 3) (diabetics [4]; 15 Units s.c., case 18 IDDM, […]): 131 mg/dL | Blood Sugar (diabetics [4]; 15 units s.c., case 5 IDDM, 0 h (baseline)): 171 mg/dL | Blood Sugar (diabetics [4]; 15 units s.c., case 5 IDDM, 1 h): 196 mg/dL | Blood Sugar (diabetics [4]; 15 units s.c., case 5 IDDM, 2 h): 161 mg/dL | Blood Sugar (diabetics [4]; 15 units s.c., case 5 IDDM, 3 h): 170 mg/dL | Blood Sugar (Table 3) (diabetics [4]; 20 Units s.c., case 10 NIDDM, 0 h (baseline)): 157 mg/dL | Blood Sugar (Table 3) (diabetics [4]; 20 Units s.c., case 10 NIDDM, 0.5 h): 102 mg/dL | Blood Sugar (Table 3) (diabetics [4]; 20 Units s.c., case 10 NIDDM, 3.0 h): 106 mg/dL | Blood Sugar (Table 3) (diabetics [4]; 20 Units s.c., case 10 NIDDM, […]): 77 mg/dL | Blood Sugar (diabetics [4]; 20 units s.c., poor responders, 0 h (baseline)): 216 mg/dL and 330 mg/dL and 312 mg/dL | Blood Sugar (diabetics [4]; 20 units s.c., poor responders, 1 h): 196 mg/dL and 162 mg/dL | Blood Sugar (diabetics [4]; 20 units s.c., poor responders, 2 h): 186 mg/dL and 180 mg/dL | Blood Sugar (diabetics [4]; 20 units s.c., poor responders, 3 h): 180 mg/dL

Sorbitan monolaurate
LD50 [5]: 41000 mg/kg

Sorbitan monooleate
LD50 [5]: > 40000 mg/kg

Sorbitan monopalmitate
LD50 [5]: > 16000 mg/kg

Sorbitan monostearate
LD50 [5]: 31000 mg/kg

Sorbitan trioleate
LD50 [5]: > 40000 mg/kg

Sorbitan tristearate
LD50 [5]: > 16000 mg/kg
